Results from ChEMBL document CHEMBL1126395, “The synthesis of conformationally-restricted diacyl glycerol analogues” (1992).
Calls of active or inactive are those of the source. No cut-off for these calls is given here.

What was measured:
[1] = test system: HL-60; assay: Compound was tested for the inhibition of the growth of HL60 cells at a concentration 10E-4 M; NS no significant affect is observed; format: functional, cell-based; settings: Homo sapiens
[2] = target: Protein kinase C (PKC) (Rattus norvegicus) (UniProt P05696+P68403+P09216+P63319+P09215+Q64617+Q9WTQ0+P09217); assay: Antagonist activity against protein Kinase C; format: functional
[3] = test system: HL-60; assay: Compound was tested for the inhibition of the growth of HL60 cells at a concentration 10E-4 M; reduction of growth was observed; format: functional; settings: Homo sapiens

| Structure (SMILES) | Activity [1] | Activity [2] | inhibition at 100 µM [3] [%] |
| --- | --- | --- | --- |
| CCCCCCCOC(=O)O[C@H]1OC(=O)C[C@@H]1O | inactive | – | – |
| CCCCCCCOC(=O)O[C@H]1OC(=O)[C@H](O)[C@@H]1O | – | inactive | – |
| CCCCCCCOC(=O)O[C@@H]1[C@@H](CO)OC(=O)[C@@H]1OC(=O)OCCCCCCC | – | inactive | – |
| CCCCCCCOC(=O)O[C@H]1OC(=O)[C@H](O)[C@@H]1OC(=O)OCCCCCCC | – | inactive | – |
| CCCCCCCOC(=O)O[C@H]1CC(=O)O[C@@H]1CO | – | inactive | 20 |
